Assay results from patent US20240091385A1, “METHODS OF ASSESSING SELECTIVE GLUCOCORTICOID RECEPTOR MODULATION AND OF IDENTIFYING AND TREATING PATIENTS LIKELY TO BENEFIT FROM GLUCOCORTICOID RECEPTOR MODULATION” (Corcept Therapeutics Incorporated, priority 2022, published 2024).

Experiments:
[1] = test system: other hormone receptors; details: cited from earlier work
[2] = test system: CLEC10A; assay: Whole blood CLEC10A RNA after prednisone in healthy volunteers (NCT03335956); type: in vivo, human
Protocol: This was a Phase 1 single-ascending dose (SAD) and multiple-ascending dose (MAD) study to assess the safety and pharmacological activity of exicorilant. Co-dosing of exicorilant with prednisone 25 mg, and comparison to the effects of prednisone alone, established the pharmacological activity of exicorilant. Only the specimens collected after dosing with prednisone alone were analyzed for the studies described below. Blood was collected in the morning prior to dosing in PAXgene RNA tubes. 4 hours after a dose of prednisone 25 mg, blood was drawn again. […] (Nanostring Technologies, Seattle WA, USA).

[3] = test system: GR target genes in whole blood; assay: Whole blood RNA fold change (NanoString 444-gene panel), randomized phase 2 ovarian cancer study NCT03776812; type: in vivo, human; details: ovarian phase 2 study, summary statement
Protocol: This phase 2, open-label, randomized, 3-arm study was performed in accordance with the principles of the Declaration of Helsinki, the Good Clinical Practice guidelines of the International Council on Harmonisation, and local regulatory requirements. The protocol was approved by the institutional review board or independent ethics committee at each investigative site. All patients or their legally authorized representatives provided written informed consent. […] Blood (2.5 mL) was drawn into a […] blood RNA tube (Qiagen) using a butterfly needle. The tube was sealed and gently inverted 10 times. The tube was frozen in dry ice and stored at -80° C. until RNA extraction. […] (Nanostring Technologies, Seattle WA, USA). […] For baseline only analyses, gene abundance is reported as normalized counts. Data were analyzed and adjusted P-values (with Benjamini-Yekutieli false discovery rate corrections) were determined in nSolver 4.0 (NanoString Technologies, Seattle, WA). Cross validated random forest techniques were used to derive a gene signature that could distinguish the relacorilant+nab-paclitaxel group from nab-paclitaxel alone ([…], Poland, Study WO5).

Row | Structure (SMILES) | affinity for other hormone receptors [1] | CLEC10A fold change ([2]; 4 hours after prednisone 25 mg, adj P=6.4×10^−8) | CLEC10A expression in whole blood ([2]; prednisone 25 mg) | CLEC10A expression in whole blood [3]
1 | Cn1ncc(S(=O)(=O)N2CC[C@H]3Cc4c(cnn4-c4ccc(F)cc4)C[C@]3(C(=O)c3cc(C(F)(F)F)ccn3)C2)n1 [exicorilant, ((4aR,8aS)-1-(4-fluorophenyl)-6-((2-methyl-2H-1,2,3-triazol-4-yl)sulfonyl)-4,4a,5,6,7,8,8a,9-octahydro-1H-pyrazolo[3,4-g]isoquinolin-4a-yl)(4-(trifluoromethyl)pyridin-2-yl)methanone] | no affinity |  |  | 
2 | C[C@]12C=CC(=O)C=C1CC[C@@H]1[C@@H]2C(=O)C[C@@]2(C)[C@H]1CC[C@]2(O)C(=O)CO [prednisone] |  | 0.37 | suppressed | 
3 | Cn1cc(S(=O)(=O)N2CCC3=Cc4c(cnn4-c4ccc(F)cc4)C[C@]3(C(=O)c3cc(C(F)(F)F)ccn3)C2)cn1 [relacorilant, (R)-(1-(4-fluorophenyl)-6-((1-methyl-1H-pyrazol-4-yl)sulfonyl)-4,4a,5,6,7,8-hexahydro-1H-pyrazolo[3,4-g]isoquinolin-4a-yl)(4-(trifluoromethyl)pyridin-2-yl)methanone] | no affinity |  |  | induced
